Results reported in publication PMC5441580, “GPR40 partial agonist MK-2305 lower fasting glucose in the Goto Kakizaki rat via suppression of endogenous glucose production” (PLoS ONE, 2017).
“And” between values parts separate entries of the source, which are not always exact repeats. Identical values can stand only once.

Columns and labels:
[1] = system: perfused db/db mouse livers; experiment: isolated perfused liver study, 13C NMR, [2-13C] pyruvate; settings: data not shown
Method: To evaluate whether GPR40 partial agonist treatment produced a direct effect on hepatic glucose production, we performed isolated perfused liver studies with ^13C NMR spectroscopy in which GPR40 agonists were dosed directly to the liver ex vivo. Mouse livers were chosen instead of rat livers due to size restrictions of the perfused liver apparatus. […] A detailed description of the perfused liver technique can be found elsewhere. Briefly, db/db mice were anesthetized (Nembutal IP, 100 mg/kg), the portal vein was cannulated and tied off, and the liver was excised and perfused with a pre-oxygenated Krebs-bicarbonate buffered solution. The liver was then placed into a 20 mm NMR tube and the gluconeogenic substrate [2-^13C] pyruvate (10 mM) was added to the perfusate plus either MK-2305 (10 μM) or vehicle (0.1% DMSO). […] These NMR signals were then converted to absolute units (μmoles) by comparison to ^13C NMR spectra of standard solutions acquired under identical conditions. Additional correction factors were included for ^13C-glycogen and ^13C-glucose to account for the fact that position 2 in pyruvate can end up at position 1, 2, 5, or 6 in glucose/glycogen due to the fumarase and triose phosphate isomerase reactions. The slope of each signal versus time was then used to calculate the following fluxes: glucose production, glycogen synthesis, and lactate production.

[2] = biological target: T1, rat GPR40 (FFAR1) (Rattus norvegicus, UniProt Q8K3T4); experiment: IP1 functional assay, CHO cells stably expressing rat GPR40; format: cell-based; settings: representative curve Fig 1B
T1 construct: expressed in transfected cells
Method: CHO Jump-IN cells stably expressing rat GPR40 or HEK293 Jump-IN cells stably expressing rat GPR120 were cultured in DMEM media supplemented with 10% dialyzed FBS, non-essential amino acids, penicillin/streptomycin, 10 μg/ml Blasticidin S HCL and 200 or 100 μg/ml Hygromycin B, respectively (Life Technologies). Cell stocks were maintained and grown in a sub-confluent state using standard cell culture procedures. The day before the experiment, the cells were harvested with non-enzymatic cell dissociation buffer and re-suspended in DMEM supplemented as described above at 0.15 million cells per ml. […] The seeded plates were incubated overnight at 37°C in a humidified environment.
On the day of the experiment, the growth media was removed from the assay plate by centrifugation using a BlueCatBio BlueWasher, protocol #21 “Light Dry” and 10 μl of IP1 stimulation buffer (prepared according to the Cisbio IP-one Tb HTRF kit) is added to each well. Test compounds were dissolved and serially diluted in DMSO as 200X the final assay concentration and 50 nl of the compound dilution was acoustically added to each well of the assay plates. The plates were then incubated for 60 minutes at room temperature and 10 μl of detection buffer (prepared according to the IP-one Tb HTRF kit) is added to each well of the assay plate. The plates were then incubated for one additional hour at room temperature. […] For each assay, a standard curve plate in which IP1 is titrated is also included. […] The % activation is then plotted versus the concentration of test compound and the dose response curve fitted to a standard 4-paramater non-linear regression model using a custom in-house developed software package. Maximal % activation and EC50 are then determined for each test compound.

[3] = system: GK rats; experiment: GK rat chronic efficacy, compound in feed for 20 days; format: in vivo; settings: for Morning (fed) Blood Glucose: Rosi 10 mpk in feed
Method: At the start of the study, fed glucose was measured at 8 A.M., and animals were selected and sorted into treatment groups based on ambient glucose (n = 10/male GK group, n = 6/male WKY control group). […] Fed blood glucose, food intake, and body weights were determined on days 0, 1, 3, 7, and 14 of study at 8 A.M. On days 7 and 14, food was removed for 5 h and plasma glucose was measured. Percent inhibitions were calculated as the percent reduction of blood glucose from the average value for vehicle controls. On day 14, blood was collected from the tail vein (20 μl) after the morning glucose measurement and after 5 h fast from a subset of n = 3 rats per treatment group to determine the ambient and fasted exposure of the compounds in circulation. The blood was stored at 4°C in 0.1 M sodium monocitrate for subsequent analysis. Animals were then re-fed their respective diet treatments. On day 20 of treatment at 8 A.M., blood glucose was measured and then animals were euthanized via CO2 asphyxiation. Blood and liver tissue were sampled, processed, and stored at -80°C until analysis.
Plasma was analyzed for triglycerides, NEFA, and HbA1C using a P Modular Roche Clinical Chemistry analyzer. Liver triglycerides were extracted as described by Bligh and Dyer, and were measured using the Infinity triglyceride assay kit (Thermo Scientific, Rockford, IL). Plasma insulin levels were measured via EIA (Mesoscale Discovery ELISA Kit, Gaithersburg MD).

[4] = plasma exposure of the compounds on day 14 of the chronic study; format: in vivo, rat; settings: 10 mg/kg in feed, GK rats
Method: At the start of the study, fed glucose was measured at 8 A.M., and animals were selected and sorted into treatment groups based on ambient glucose (n = 10/male GK group, n = 6/male WKY control group). Animals were then placed on diet (LabDiet # 5001) that contained, or was devoid of, compound at the daily doses indicated. Fed blood glucose, food intake, and body weights were determined on days 0, 1, 3, 7, and 14 of study at 8 A.M. On days 7 and 14, food was removed for 5 h and plasma glucose was measured. Percent inhibitions were calculated as the percent reduction of blood glucose from the average value for vehicle controls. On day 14, blood was collected from the tail vein (20 μl) after the morning glucose measurement and after 5 h fast from a subset of n = 3 rats per treatment group to determine the ambient and fasted exposure of the compounds in circulation. The blood was stored at 4°C in 0.1 M sodium monocitrate for subsequent analysis. Animals were then re-fed their respective diet treatments. On day 20 of treatment at 8 A.M., blood glucose was measured and then animals were euthanized via CO2 asphyxiation. Blood and liver tissue were sampled, processed, and stored at -80°C until analysis.

[5] = system: GK rats; experiment: GK rat chronic efficacy, compound in feed for 20 days; format: in vivo; settings: Day 7, ~6 hrs after food removal; 10mpk; chronic study; individual animals; 10 mg/kg
[6] = system: diabetic humans; settings: clinical trials; cited from earlier work
[7] = 10 mpk, following 20 days of treatment in the GK rat, individual animals

T1 sequence (Q8K3T4 whole entry): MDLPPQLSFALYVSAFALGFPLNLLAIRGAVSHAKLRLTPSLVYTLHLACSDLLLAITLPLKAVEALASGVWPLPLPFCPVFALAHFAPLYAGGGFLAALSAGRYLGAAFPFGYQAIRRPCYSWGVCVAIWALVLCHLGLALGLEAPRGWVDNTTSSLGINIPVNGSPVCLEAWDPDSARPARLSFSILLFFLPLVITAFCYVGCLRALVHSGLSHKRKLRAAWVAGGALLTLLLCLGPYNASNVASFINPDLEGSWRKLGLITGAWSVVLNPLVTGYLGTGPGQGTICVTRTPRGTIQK

CCOC(=O)[C@H](C)NP(=O)(N[C@@H](C)C(=O)OCC)c1ccc(-c2nc(N)sc2CC(C)C)o1 [CS917, reference compound]
effect on gluconeogenesis in the perfused liver [1]: marked acute reductions

O=C(O)c1ncccc1S [3-MPA, reference compound]
effect on gluconeogenesis in the perfused liver [1]: marked acute reductions

COc1ccc(F)c(-c2ccc(COc3cccc([C@@H](CC(=O)O)C4CC4)c3)cc2C2=CCCC2(C)C)c1 [AM1638, reference compound]
Receptor Activation (%) ([2]; Concentration 1e-6 M): 370% | Receptor Activation (%) ([2]; Concentration 1.50E-11 M): -18% | Receptor Activation (%) ([2]; Concentration 1.56E-08 M): 132% | Receptor Activation (%) ([2]; Concentration 2.44E-10 M): 11% | Receptor Activation (%) ([2]; Concentration 2.50E-07 M): 361% | Receptor Activation (%) ([2]; Concentration 3.91E-09 M): 23% | Receptor Activation (%) ([2]; Concentration 4.00E-12 M): -6% | Receptor Activation (%) ([2]; Concentration 6.10E-11 M): 2% | Receptor Activation (%) ([2]; Concentration 6.25E-08 M): 275% | Receptor Activation (%) ([2]; Concentration 9.77E-10 M): 18%

CN(CCOc1ccc(CC2SC(=O)NC2=O)cc1)c1ccccn1 (stereo not shown) [Rosiglitazone, reference compound]
effect on body weight ([3]; 10 mg/kg in feed, GK rats): steady increase in body weight | effect on food intake ([3]; 10 mg/kg in feed, GK rats): significant and consistent increase in food consumption beginning on day 3 | % HBA1c [3, 7]: 4.4% and 4.2% and 4.3% and 4.7% | Liver Triglycerides [3, 7]: 5.5 mg/g tissue and 8.7 mg/g tissue and 7.2 mg/g tissue and 5 mg/g tissue and 3.9 mg/g tissue and 6.1 mg/g tissue and 3.1 mg/g tissue | Fasted plasma insulin ([3]; Day 7, 10mpk, individual animals, 10 mg/kg): 64.4 pg/mL and 7.9 pg/mL and 28.0 pg/mL and 0.0 pg/mL and 126.7 pg/mL and 13.3 pg/mL and 40.2 pg/mL and 147.0 pg/mL and 54.7 pg/mL | Fasted plasma insulin ([3]; Day 14, 10mpk, individual animals, 10 mg/kg): 82.7 pg/mL and 67.8 pg/mL and 78.9 pg/mL and 214.4 pg/mL and 804.3 pg/mL and 809.3 pg/mL and 0.0 pg/mL and 890.8 pg/mL and 292.0 pg/mL | Morning (fed) Blood Glucose ([3]; Day 0 (start of study), individual GK rats): 195 mg/dL and 181 mg/dL and 219 mg/dL and 203 mg/dL and 204 mg/dL and 243 mg/dL and 186 mg/dL and 233 mg/dL and 191 mg/dL and 282 mg/dL | Morning (fed) Blood Glucose ([3]; Day 1, individual GK rats): 211 mg/dL and 175 mg/dL and 218 mg/dL and 246 mg/dL and 213 mg/dL and 240 mg/dL and 207 mg/dL and 205 mg/dL and 198 mg/dL and 275 mg/dL | Morning (fed) Blood Glucose ([3]; Day 3, individual GK rats): 129 mg/dL and 177 mg/dL and 163 mg/dL and 175 mg/dL and 172 mg/dL and 174 mg/dL and 242 mg/dL | Morning (fed) Blood Glucose ([3]; Day 7, individual GK rats): 135 mg/dL and 125 mg/dL and 137 mg/dL and 118 mg/dL and 123 mg/dL | Morning (fed) Blood Glucose ([3]; Day 14, individual GK rats): 133 mg/dL and 134 mg/dL and 121 mg/dL and 132 mg/dL | Morning (fed) Blood Glucose ([3]; Day 20, individual GK rats): 126 mg/dL and 133 mg/dL and 128 mg/dL and 129 mg/dL and 127 mg/dL and 123 mg/dL | NEFA (mEq/L) ([3]; Rosi @ 10, 20 days of treatment, individual GK rats): 0.32 mEq/L and 0.33 mEq/L and 0.35 mEq/L and 0.75 mEq/L and 0.49 mEq/L and 0.54 mEq/L and 0.48 mEq/L and 0.39 mEq/L and 0.65 mEq/L | decrease in fed glucose vs. vehicle ([3]; day 3, 10 mg/kg in feed, GK rats, p < 0.05): 22% | reduction in fasting blood glucose vs. vehicle ([3]; day 7, 5 hr fast, 10 mg/kg in feed, GK rats): 16% | reduction in fasting blood glucose vs. vehicle ([3]; day 14, 5 hr fast, 10 mg/kg in feed, GK rats): 19% | plasma NEFA ([3]; day 20, 10 mg/kg in feed, GK rats, mean ± SEM, vehicle 0.37 ± 0.03, not significant): 0.48 ± 0.05 mEq/L | effect on circulating HbA1C levels ([3]; day 20, GK rats, all treatment groups): significantly reduced | effect on liver triglyceride levels ([3]; day 20, GK rats, vs. vehicle controls): significant decrease | effect on fasted plasma insulin ([3]; days 7 and 14, 5 hr fast, GK rats): no significant effects | Fasted blood glucose ([3]; second block of the table (day 14 per title), 10mpk, individual animals, 10 mg/kg): 124 mg/dl and 131 mg/dl (2×) and 114 mg/dl and 133 mg/dl and 134 mg/dl | plasma exposure ([4]; day 14, fasted time point): ~0.7 µM | plasma exposure ([4]; day 14, fed time point): ~ 3 μM | Fasted blood glucose [5]: 109 mg/dL and 132 mg/dL and 121 mg/dL and 119 mg/dL and 134 mg/dL and 110 mg/dL and 115 mg/dL and 116 mg/dL

Cc1cc(OCCCS(C)(=O)=O)cc(C)c1-c1cccc(COc2ccc3c(c2)OC[C@H]3CC(=O)O)c1 [TAK-875, Fasiglifam]
effect on oral glucose tolerance, fasted plasma glucose, and hemoglobin HbA1C [6]: significant reductions
